One may read the pKa as the negative logarithm of the acid dissociation constant. Usually solubility stands for the dissolved amount per volume that the medium holds. High values mean much dissolved substance, low ones little dissolved substance.

SMILES strings stand for the structures. ≈ marks a conversion by molar mass, not a printed value.

Holding throughout (format): physicochemical
One data set is described as follows: pKa of Form P-1.
Data set [1] is described as follows: Solvent mediated polymorphic transformation (suspension of P-1 crystals in solvents). To be noted: room temperature or elevated temperature.
A short description of data set [2]: Aqueous solubility of Form P-1. To be noted: aqueous medium.
Data set [3] in a line: Hygroscopicity of Form P-1.

Molecule `COc1cnc(-n2cnc(C)n2)c2[nH]cc(C(=O)C(=O)N3CCN(C(=O)c4ccccc4)CC3)c12` [Form P-1, 1-(4-benzoyl-piperazin-1-yl)-2-[4-methoxy-7-(3-methyl-[1,2,4]triazol-1-yl)-1H-pyrrolo[2,3-c]pyridin-3-yl]-ethane-1,2-dione] came in with a pKa in the data set “pKa of Form P-1” of 8.4. Moreover, the “Phase conversion on suspension in various solvents” value in data set [1] is “did not show any phase conversion”. Further, the solubility in data set [2] (25 °C, pH 5.7, aqueous buffer) is 2.7 µg/mL (≈ 5.7 µM); in data set [2] (aqueous buffer, pH 8.6, 25° C.), 14 µg/mL (≈ 29.6 µM); in data set [2] (simulated gastric fluid, pH 1.4, 25° C.) it was 12 µg/mL (≈ 25.3 µM). The “Hygroscopicity: maximum water uptake” value in data set [3] (at 90% RH) is “RH and 3.2% maximum water uptake at 90% RH)”. Moreover, in data set [3] (result in words), the Hygroscopicity entry was “Low hygroscopicity”. Besides, the “Hygroscopicity: weight gain” value in data set [3] (under 30-60% RH) is 1%.

(Values after patent US7829711B2, “Crystalline materials of 1-(4-benzoyl-piperazin-1-yl)-2-[4-methoxy-7-(3-methyl-[1,2,4]triazol-1-yl)-1H-pyrrolo[2,3-C]pyridine-3-yl]-ethane-1,2-dione” (Bristol-Myers Squibb Company, priority 2004, dated 2010).)
